Several values for one entry are separate records, joined by “and”; a condition that tells them apart may be missing. Equal entries are not always repeated. Toxic doses and inconclusive results are not listed.
Test system: L1210 leukemia ip in BDF1 mice, survival T/C
Test: NCI In Vivo Anticancer Drug Screen. Data for tumor model L1210 Leukemia (intraperitoneal) in B6D2F1 (BDF1) mice
Conditions: higher = longer survival
Summary of the method: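 In this screen, tumor-bearing mice given compound are compared to those given vehicle, and their survival values are reported as a treated-to-control quotient.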

## O=NN(CCCl)C(=O)NC1CCCCC1
endpoint: mean survival time, dose: 9.0 mg/kg/injection, schedule: Q01DX003 (ip), vehicle: carboxymethylcellulose (CMC)
  T/C: 154 % of control
endpoint: mean survival time, dose: 9.3 mg/kg/injection, schedule: Q## X004 (ip), vehicle: carboxymethylcellulose (CMC)
  T/C: 112 % of control
endpoint: mean survival time, dose: 9.37 mg/kg/injection, schedule: Q01DX001 (ip), vehicle: saline
  T/C: 102 % of control
endpoint: mean survival time, dose: 10.0 mg/kg/injection, schedule: Q01DX001 (ip), vehicle: carboxymethylcellulose (CMC)
  T/C: 116 % of control
endpoint: mean survival time, dose: 10.0 mg/kg/injection, schedule: Q01DX001 (iv), vehicle: clinical formulation
  T/C: 160 % of control
endpoint: mean survival time, dose: 10.0 mg/kg/injection, schedule: Q## X032 (ip), vehicle: carboxymethylcellulose (CMC)
  T/C: 122 % of control
endpoint: mean survival time, dose: 12.5 mg/kg/injection, schedule: Q01DX009 (ip), vehicle: Klucel (hydroxypropylcellulose) (HPC)
  T/C: 172 % of control
endpoint: mean survival time, dose: 12.5 mg/kg/injection, schedule: Q01DX Z (ip), vehicle: carboxymethylcellulose (CMC)
  T/C: 156 % of control
endpoint: mean survival time, dose: 12.5 mg/kg/injection, schedule: Q03HX024 (ip), vehicle: carboxymethylcellulose (CMC)
  T/C: 154 % of control
endpoint: mean survival time, dose: 15.0 mg/kg/injection, schedule: Q01DX001 (iv), vehicle: Klucel (hydroxypropylcellulose) (HPC)
  T/C: 152 % of control
endpoint: mean survival time, dose: 16.0 mg/kg/injection, schedule: Q01DX009 (ip), vehicle: saline with Tween-80
  T/C: 161 % of control
endpoint: mean survival time, dose: 16.0 mg/kg/injection, schedule: Q01DX Z (ip), vehicle: carboxymethylcellulose (CMC)
  T/C: 158 % of control
endpoint: mean survival time, dose: 16.0 mg/kg/injection, schedule: Q03HX003 (oral), vehicle: saline
  T/C: 161 % of control
endpoint: mean survival time, dose: 18.0 mg/kg/injection, schedule: Q01DX001 (ip), vehicle: carboxymethylcellulose (CMC)
  T/C: 159 % of control
endpoint: mean survival time, dose: 18.5 mg/kg/injection, schedule: Q01DX001 (ip), vehicle: carboxymethylcellulose (CMC)
  T/C: 153 % of control
endpoint: mean survival time, dose: 18.75 mg/kg/injection, schedule: Q01DX001 (ip), vehicle: saline
  T/C: 109 % of control
endpoint: mean survival time, dose: 20.0 mg/kg/injection, schedule: Q01DX001 (ip), vehicle: carboxymethylcellulose (CMC)
  T/C: 160 % of control
endpoint: mean survival time, dose: 20.0 mg/kg/injection, schedule: Q04DX004 (ip), vehicle: Klucel (hydroxypropylcellulose) (HPC)
  T/C: 162 % of control
endpoint: mean survival time, dose: 22.0 mg/kg/injection, schedule: Q01DX001 (ip), vehicle: carboxymethylcellulose (CMC)
  T/C: 156 % of control
endpoint: mean survival time, dose: 22.0 mg/kg/injection, schedule: Q01DX001 (iv), vehicle: saline
  T/C: 165 % of control
endpoint: mean survival time, dose: 25.0 mg/kg/injection, schedule: Q03HX008 (ip), vehicle: carboxymethylcellulose (CMC)
  T/C: 112 % of control
endpoint: mean survival time, dose: 30.0 mg/kg/injection, schedule: Q01DX001 (ip), vehicle: saline
  T/C: 156 % of control
endpoint: mean survival time, dose: 32.0 mg/kg/injection, schedule: Q01DX005 (oral), vehicle: saline
  T/C: 121 % of control
endpoint: mean survival time, dose: 50.0 mg/kg/injection, schedule: Q01DX Z (ip), vehicle: carboxymethylcellulose (CMC)
  T/C: 118 % of control
endpoint: mean survival time, dose: 50.0 mg/kg/injection, schedule: Q07DX Z (ip), vehicle: carboxymethylcellulose (CMC)
  T/C: 158 % of control
endpoint: mean survival time, dose: 50.0 mg/kg/injection, schedule: Q## X004 (ip), vehicle: carboxymethylcellulose (CMC)
  T/C: 160 % of control
endpoint: mean survival time, dose: 50.0 mg/kg/injection, schedule: Q## X015 (ip), vehicle: carboxymethylcellulose (CMC)
  T/C: 171 % of control
endpoint: mean survival time, dose: 62.0 mg/kg/injection, schedule: Q01DX Z (ip), vehicle: carboxymethylcellulose (CMC)
  T/C: 92 % of control
endpoint: mean survival time, dose: 75.0 mg/kg/injection, schedule: Q## X008 (ip), vehicle: carboxymethylcellulose (CMC)
  T/C: 163 % of control
endpoint: mean survival time, dose: 97.0 mg/kg/injection, schedule: Q01DX001 (oral), vehicle: carboxymethylcellulose (CMC)
  T/C: 95 % of control
endpoint: mean survival time, dose: 100.0 mg/kg/injection, schedule: Q01DX001 (ip), vehicle: carboxymethylcellulose (CMC)
  T/C: 164 % of control
endpoint: mean survival time, dose: 100.0 mg/kg/injection, schedule: Q01DX001 (ip), vehicle: saline
  T/C: 104 % of control
endpoint: mean survival time, dose: 100.0 mg/kg/injection, schedule: Q01DX001 (oral), vehicle: saline
  T/C: 95 % of control
endpoint: mean survival time, dose: 112.0 mg/kg/injection, schedule: Q01DX001 (ip), vehicle: carboxymethylcellulose (CMC)
  T/C: 164 % of control
endpoint: mean survival time, dose: 112.0 mg/kg/injection, schedule: Q## X001 (ip), vehicle: carboxymethylcellulose (CMC)
  T/C: 152 % of control
endpoint: mean survival time, dose: 112.0 mg/kg/injection, schedule: Q## X008 (ip), vehicle: carboxymethylcellulose (CMC)
  T/C: 121 % of control
endpoint: mean survival time, dose: 112.0 mg/kg/injection, schedule: Q## X015 (ip), vehicle: carboxymethylcellulose (CMC)
  T/C: 119 % of control
endpoint: mean survival time, dose: 200.0 mg/kg/injection, schedule: Q01DX001 (ip), vehicle: Klucel (hydroxypropylcellulose) (HPC)
  T/C: 110 % of control
endpoint: mean survival time, dose: 200.0 mg/kg/injection, schedule: Q01DX001 (ip), vehicle: carboxymethylcellulose (CMC)
  T/C: 104 % of control
endpoint: mean survival time, dose: 200.0 mg/kg/injection, schedule: Q01DX001 (oral), vehicle: carboxymethylcellulose (CMC)
  T/C: 159 % of control
endpoint: mean survival time, dose: 400.0 mg/kg/injection, schedule: Q01DX001 (ip), vehicle: carboxymethylcellulose (CMC)
  T/C: 93 % of control
endpoint: median survival time, dose: 12.5 mg/kg/injection, schedule: Q01DX001 (ip), vehicle: saline with Tween-80
  T/C: 99 % of control and 100 % of control
endpoint: median survival time, dose: 25.0 mg/kg/injection, schedule: Q01DX001 (ip), vehicle: saline with Tween-80
  T/C: 100 % of control and 101 % of control
endpoint: median survival time, dose: 25.0 mg/kg/injection, schedule: Q01DX001 (oral), vehicle: Klucel (hydroxypropylcellulose) (HPC)
  T/C: 158 % of control
endpoint: median survival time, dose: 50.0 mg/kg/injection, schedule: Q01DX001 (ip), vehicle: saline with Tween-80
  T/C: 112 % of control and 113 % of control
endpoint: median survival time, dose: 200.0 mg/kg/injection, schedule: Q01DX001 (ip), vehicle: saline with Tween-80
  T/C: 112 % of control and 113 % of control
